Test results as given in publication PMC4268884 (Nature communications, 2014).

Target: LRRK2 (Homo sapiens, UniProt Q5S007, G2019S)
Assay: loss of constitutive phosphorylation in cells
Type: cell-based

LRRK2, sequence (Q5S007 whole entry G2019S): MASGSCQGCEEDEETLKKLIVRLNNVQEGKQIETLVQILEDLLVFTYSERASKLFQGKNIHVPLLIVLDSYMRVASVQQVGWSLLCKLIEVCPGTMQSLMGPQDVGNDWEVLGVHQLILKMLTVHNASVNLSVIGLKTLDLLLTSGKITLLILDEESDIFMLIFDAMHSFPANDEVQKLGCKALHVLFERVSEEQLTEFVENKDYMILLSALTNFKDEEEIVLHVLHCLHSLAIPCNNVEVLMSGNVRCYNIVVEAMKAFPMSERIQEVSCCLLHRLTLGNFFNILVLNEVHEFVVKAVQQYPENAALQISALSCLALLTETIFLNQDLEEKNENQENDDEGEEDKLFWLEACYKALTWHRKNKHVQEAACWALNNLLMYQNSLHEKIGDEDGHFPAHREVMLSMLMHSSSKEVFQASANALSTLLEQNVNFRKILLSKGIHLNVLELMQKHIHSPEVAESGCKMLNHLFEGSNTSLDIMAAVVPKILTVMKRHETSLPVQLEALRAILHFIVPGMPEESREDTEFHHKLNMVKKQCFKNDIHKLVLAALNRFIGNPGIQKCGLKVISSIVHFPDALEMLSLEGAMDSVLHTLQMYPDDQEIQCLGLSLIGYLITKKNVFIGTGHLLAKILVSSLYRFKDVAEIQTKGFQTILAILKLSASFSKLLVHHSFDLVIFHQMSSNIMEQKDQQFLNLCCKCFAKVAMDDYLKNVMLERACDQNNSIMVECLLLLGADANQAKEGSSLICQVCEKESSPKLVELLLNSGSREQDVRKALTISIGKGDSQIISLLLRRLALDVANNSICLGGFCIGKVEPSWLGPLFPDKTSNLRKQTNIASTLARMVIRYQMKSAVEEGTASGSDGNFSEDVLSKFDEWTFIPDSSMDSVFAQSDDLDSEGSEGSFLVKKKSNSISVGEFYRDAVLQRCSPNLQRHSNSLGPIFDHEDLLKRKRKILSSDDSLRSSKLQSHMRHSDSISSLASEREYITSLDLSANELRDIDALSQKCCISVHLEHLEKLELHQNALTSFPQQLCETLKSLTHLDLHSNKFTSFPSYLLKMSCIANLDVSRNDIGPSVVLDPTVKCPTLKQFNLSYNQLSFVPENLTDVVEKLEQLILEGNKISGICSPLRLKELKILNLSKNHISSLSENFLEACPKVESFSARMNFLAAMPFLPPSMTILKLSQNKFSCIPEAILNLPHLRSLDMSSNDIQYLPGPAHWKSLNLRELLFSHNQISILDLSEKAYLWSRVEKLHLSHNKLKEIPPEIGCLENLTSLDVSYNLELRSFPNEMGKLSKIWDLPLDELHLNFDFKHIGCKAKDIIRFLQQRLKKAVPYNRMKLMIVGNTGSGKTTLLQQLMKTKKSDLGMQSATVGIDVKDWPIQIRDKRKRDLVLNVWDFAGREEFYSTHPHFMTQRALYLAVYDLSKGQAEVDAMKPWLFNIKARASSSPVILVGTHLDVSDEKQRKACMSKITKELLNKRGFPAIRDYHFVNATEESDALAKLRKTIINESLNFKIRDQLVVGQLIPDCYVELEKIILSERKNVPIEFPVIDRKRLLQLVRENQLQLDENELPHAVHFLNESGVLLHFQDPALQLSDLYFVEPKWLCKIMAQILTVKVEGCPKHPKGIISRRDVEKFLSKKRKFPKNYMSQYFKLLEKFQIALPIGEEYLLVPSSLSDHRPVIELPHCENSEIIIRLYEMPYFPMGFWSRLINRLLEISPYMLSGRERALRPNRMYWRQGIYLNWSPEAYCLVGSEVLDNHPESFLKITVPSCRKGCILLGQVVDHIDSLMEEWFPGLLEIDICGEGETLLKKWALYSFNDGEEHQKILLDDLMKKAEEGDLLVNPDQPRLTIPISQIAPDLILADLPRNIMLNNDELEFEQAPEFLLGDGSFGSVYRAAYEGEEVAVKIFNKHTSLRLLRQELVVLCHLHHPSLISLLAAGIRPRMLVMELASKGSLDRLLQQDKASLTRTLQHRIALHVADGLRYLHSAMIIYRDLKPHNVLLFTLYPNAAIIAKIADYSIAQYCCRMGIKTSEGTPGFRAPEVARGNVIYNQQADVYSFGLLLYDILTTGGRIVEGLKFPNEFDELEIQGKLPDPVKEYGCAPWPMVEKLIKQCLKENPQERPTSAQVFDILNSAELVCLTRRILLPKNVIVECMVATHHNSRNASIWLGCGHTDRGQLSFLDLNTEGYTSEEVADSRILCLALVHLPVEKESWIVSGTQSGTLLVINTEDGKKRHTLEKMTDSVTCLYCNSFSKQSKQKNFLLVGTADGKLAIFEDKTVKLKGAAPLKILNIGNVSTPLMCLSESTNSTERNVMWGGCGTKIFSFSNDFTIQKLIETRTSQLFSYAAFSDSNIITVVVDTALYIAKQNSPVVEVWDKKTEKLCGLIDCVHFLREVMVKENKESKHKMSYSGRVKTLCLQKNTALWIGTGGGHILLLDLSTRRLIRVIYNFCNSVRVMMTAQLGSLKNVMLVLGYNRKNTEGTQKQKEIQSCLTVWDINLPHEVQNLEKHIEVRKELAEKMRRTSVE

## COc1cc(C(=O)N2CCC(N3CCN(C)CC3)CC2)ccc1Nc1ncc2c(n1)N(C)c1ccccc1C(=O)N2C [LRRK2-IN1]
  loss of constitutive phosphorylation in cells: The pathogenic G2019S mutation in the kinase domain is phosphorylated and sensitive to the effects of LRRK2-IN1
